Measurements as given in ChEMBL document CHEMBL1201862, “PubChem BioAssay data set” (2004).
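Where inhibition never reached the appropriate level, the endpoint shown equals the highest concentration tested. Otherwise, values were interpolated linearly from a five-concentration, 48-hour dose response in 96-well plates. At the GI50, growth is halved.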 Active and inactive are the calls of the source. Rule as the data show it: active = GI50 up to about 1.1 µM and inactive = higher.

Assays:
Test in all cases: NCI anticancer screen, dose series, 48 h
K562 = test system: K562
LOX IMVI = test system: LOX IMVI
ACHN = test system: ACHN
M14 = test system: M14
CAKI-1 = test system: CAKI-1
HCT-116 = test system: HCT-116
HOP-92 = test system: HOP-92
SF-268 = test system: SF-268
SNB-19 = test system: SNB-19
TK-10 = test system: TK-10
SF-295 = test system: SF-295
A549 = test system: A549
NCI-H23 = test system: NCI-H23
SNB-75 = test system: SNB-75
DLD-1 = test system: DLD-1
UACC-257 = test system: UACC-257
COLO 205 = test system: COLO 205
MOLT-4 = test system: MOLT-4
HCT-15 = test system: HCT-15
SK-MEL-2 = test system: SK-MEL-2
SW-620 = test system: SW-620
UACC-62 = test system: UACC-62
DMS-273 = test system: DMS-273
786-0 = test system: 786-0
SK-OV-3 = test system: SK-OV-3
SR = test system: SR
Malme-3M = test system: Malme-3M
LXFL 529 = test system: LXFL 529
HL-60 = test system: HL-60
UO-31 = test system: UO-31
NCI-H460 = test system: NCI-H460
HOP-18 = test system: HOP-18
RXF 393 = test system: RXF 393
RPMI-8226 = test system: RPMI-8226
SK-MEL-5 = test system: SK-MEL-5
HT-29 = test system: HT-29
IGROV-1 = test system: IGROV-1
NCI-H226 = test system: NCI-H226
HOP-62 = test system: HOP-62
OVCAR-3 = test system: OVCAR-3
OVCAR-4 = test system: OVCAR-4
OVCAR-8 = test system: OVCAR-8
NCI-H522 = test system: NCI-H522
U-251 = test system: U-251
A498 = test system: A498
SK-MEL-28 = test system: SK-MEL-28
SNB-78 = test system: SNB-78
XF498 = test system: XF498
CCRF-CEM = test system: CCRF-CEM
KM-20L2 = test system: KM-20L2
KM12 = test system: KM12
EKVX = test system: EKVX
HCC 2998 = test system: HCC 2998
OVCAR-5 = test system: OVCAR-5
SN12C = test system: SN12C
SF-539 = test system: SF-539
M19-MEL = test system: M19-MEL
NCI/ADR-RES = test system: NCI/ADR-RES
DMS-114 = test system: DMS-114

## COc1ccc(C2=C[C@]3(O)CCCN3C[C@@H]2c2ccc(OC)c(OC)c2)cc1
K562
  GI50: < 0.0001 µM (active)
LOX IMVI
  GI50: < 0.0001 µM (active)
ACHN
  GI50: < 0.0001 µM (active)
M14
  GI50: < 0.0001 µM (active)
CAKI-1
  GI50: < 0.0001 µM (active)
HCT-116
  GI50: < 0.0001 µM (active)
HOP-92
  GI50: < 0.0001 µM (active)
SF-268
  GI50: < 0.0001 µM (active)
SNB-19
  GI50: < 0.0001 µM (active)
TK-10
  GI50: < 0.0001 µM (active)
SF-295
  GI50: < 0.0001 µM (active)
A549
  GI50: < 0.0001 µM (active)
NCI-H23
  GI50: < 0.0001 µM (active)
SNB-75
  GI50: < 0.0001 µM (active)
DLD-1
  GI50: < 0.0001 µM (active)
UACC-257
  GI50: < 0.0001 µM (active)
COLO 205
  GI50: < 0.0001 µM (active)
MOLT-4
  GI50: < 0.0001 µM (active)
HCT-15
  GI50: < 0.0001 µM
SK-MEL-2
  GI50: < 0.0001 µM (active)
SW-620
  GI50: < 0.0001 µM (active)
UACC-62
  GI50: < 0.0001 µM (active)
DMS-273
  GI50: < 0.0001 µM (active)
786-0
  GI50: < 0.0001 µM (active)
SK-OV-3
  GI50: < 0.0001 µM (active)
SR
  GI50: < 0.0001 µM (active)
Malme-3M
  GI50: < 0.0001 µM (active)
LXFL 529
  GI50: < 0.0001 µM (active)
HL-60
  GI50: < 0.0001 µM (active)
UO-31
  GI50: < 0.0001 µM (active)
NCI-H460
  GI50: < 0.0001 µM (active)
HOP-18
  GI50: < 0.0001 µM (active)
RXF 393
  GI50: > 0.01 µM (active)
RPMI-8226
  GI50: > 0.01 µM (active)
SK-MEL-5
  GI50: < 0.0001 µM (active)
HT-29
  GI50: < 0.0001 µM (active)
IGROV-1
  GI50: < 0.0001 µM (active)
NCI-H226
  GI50: < 0.0001 µM (active)
HOP-62
  GI50: < 0.0001 µM (active)
OVCAR-3
  GI50: < 0.0001 µM (active)
OVCAR-4
  GI50: > 0.01 µM (active)
OVCAR-8
  GI50: < 0.0001 µM (active)
NCI-H522
  GI50: < 0.0001 µM (active)
U-251
  GI50: < 0.0001 µM (active)
A498
  GI50: < 0.0001 µM (active)
SK-MEL-28
  GI50: < 0.0001 µM (active)
SNB-78
  GI50: < 0.0001 µM (active)
XF498
  GI50: < 0.0001 µM (active)
CCRF-CEM
  GI50: < 0.0001 µM (active)
KM-20L2
  GI50: < 0.0001 µM (active)
KM12
  GI50: < 0.0001 µM (active)
EKVX
  GI50: < 0.0001 µM (active)
HCC 2998
  GI50: > 0.01 µM (active)
OVCAR-5
  GI50: < 0.0001 µM (active)
SN12C
  GI50: < 0.0001 µM (active)
SF-539
  GI50: < 0.0001 µM (active)

## C=C1C(=O)O[C@H]2[C@H]1[C@@H](OC(=O)C=C(C)C)CC1=C[C@@H](C[C@@]3(C)O[C@@H]23)OC1=O
LOX IMVI
  GI50: 2.27 µM (inactive)
CAKI-1
  GI50: 3.14 µM (inactive)
HCT-116
  GI50: 3.4 µM (inactive)
HOP-92
  GI50: 2.1 µM (inactive)
SNB-19
  GI50: 22.3 µM (inactive)
SF-295
  GI50: 13.4 µM (inactive)
A549
  GI50: 22 µM (inactive)
NCI-H23
  GI50: 3.13 µM (inactive)
SNB-75
  GI50: 18 µM (inactive)
DLD-1
  GI50: 1.6 µM (inactive)
UACC-257
  GI50: 2.18 µM (inactive)
MOLT-4
  GI50: 2.15 µM (inactive)
HCT-15
  GI50: 1.93 µM
SK-MEL-2
  GI50: 9.1 µM (inactive)
SW-620
  GI50: 1.43 µM (inactive)
M19-MEL
  GI50: 3.08 µM (inactive)
UACC-62
  GI50: 3.52 µM (inactive)
DMS-273
  GI50: 1.61 µM (inactive)
SK-OV-3
  GI50: 20.9 µM (inactive)
Malme-3M
  GI50: 8.04 µM (inactive)
NCI/ADR-RES
  GI50: 2.17 µM (inactive)
UO-31
  GI50: 7.74 µM (inactive)
HOP-18
  GI50: 3.05 µM (inactive)
RXF 393
  GI50: 1.83 µM (inactive)
SK-MEL-5
  GI50: 5.55 µM (inactive)
HT-29
  GI50: 4.14 µM (inactive)
IGROV-1
  GI50: 10.8 µM (inactive)
NCI-H226
  GI50: 21.2 µM (inactive)
HOP-62
  GI50: 27.9 µM (inactive)
OVCAR-3
  GI50: 1.59 µM (inactive)
OVCAR-4
  GI50: 6.32 µM (inactive)
NCI-H522
  GI50: 1.16 µM (inactive)
U-251
  GI50: 16.3 µM (inactive)
A498
  GI50: 7.33 µM (inactive)
XF498
  GI50: 2.05 µM (inactive)
CCRF-CEM
  GI50: 0.859 µM (active)
KM12
  GI50: 5.74 µM (inactive)
EKVX
  GI50: 4.23 µM (inactive)
HCC 2998
  GI50: 17.4 µM (inactive)
OVCAR-5
  GI50: 16.7 µM (inactive)
SN12C
  GI50: 4.54 µM (inactive)
SF-539
  GI50: 2.24 µM (inactive)

## O=c1oc(=O)c2oc3ccccc3oc1=2
K562
  GI50: > 100 µM (inactive)
LOX IMVI
  GI50: > 100 µM (inactive)
ACHN
  GI50: > 100 µM (inactive)
M14
  GI50: > 100 µM (inactive)
CAKI-1
  GI50: > 100 µM (inactive)
HCT-116
  GI50: > 100 µM (inactive)
HOP-92
  GI50: > 100 µM (inactive)
SF-268
  GI50: > 100 µM (inactive)
SNB-19
  GI50: > 100 µM (inactive)
TK-10
  GI50: > 100 µM (inactive)
SF-295
  GI50: > 100 µM (inactive)
A549
  GI50: > 100 µM (inactive)
NCI-H23
  GI50: > 100 µM (inactive)
SNB-75
  GI50: > 100 µM (inactive)
DLD-1
  GI50: > 100 µM (inactive)
UACC-257
  GI50: > 100 µM (inactive)
COLO 205
  GI50: > 100 µM (inactive)
MOLT-4
  GI50: > 100 µM (inactive)
HCT-15
  GI50: > 100 µM
SK-MEL-2
  GI50: > 100 µM (inactive)
SW-620
  GI50: > 100 µM (inactive)
M19-MEL
  GI50: > 100 µM (inactive)
UACC-62
  GI50: > 100 µM (inactive)
DMS-273
  GI50: > 100 µM (inactive)
786-0
  GI50: > 100 µM (inactive)
SK-OV-3
  GI50: > 100 µM (inactive)
SR
  GI50: > 100 µM (inactive)
Malme-3M
  GI50: > 100 µM (inactive)
LXFL 529
  GI50: > 100 µM (inactive)
HL-60
  GI50: > 100 µM (inactive)
UO-31
  GI50: > 100 µM (inactive)
NCI-H460
  GI50: > 100 µM (inactive)
HOP-18
  GI50: > 100 µM (inactive)
RXF 393
  GI50: > 100 µM (inactive)
DMS-114
  GI50: > 100 µM (inactive)
HT-29
  GI50: > 100 µM (inactive)
IGROV-1
  GI50: > 100 µM (inactive)
NCI-H226
  GI50: > 100 µM (inactive)
HOP-62
  GI50: > 100 µM (inactive)
OVCAR-3
  GI50: > 100 µM (inactive)
OVCAR-4
  GI50: > 100 µM (inactive)
OVCAR-8
  GI50: > 100 µM (inactive)
NCI-H522
  GI50: > 100 µM (inactive)
U-251
  GI50: > 100 µM (inactive)
A498
  GI50: > 100 µM (inactive)
SK-MEL-28
  GI50: > 100 µM (inactive)
XF498
  GI50: > 100 µM (inactive)
CCRF-CEM
  GI50: > 100 µM (inactive)
KM-20L2
  GI50: > 100 µM (inactive)
KM12
  GI50: > 100 µM (inactive)
EKVX
  GI50: > 100 µM (inactive)
HCC 2998
  GI50: > 100 µM (inactive)
OVCAR-5
  GI50: > 100 µM (inactive)
SN12C
  GI50: > 100 µM (inactive)
SF-539
  GI50: > 100 µM (inactive)
